≈ marks a conversion by molar mass, not a printed value.
Key:
[1] = Oral bioavailability in rat at 56 or 168 mg/kg/day administered through gavage for 14 consecutive days by HPLC analysis; format: ADME, organism-based; settings: in vivo
[2] = target: T1, NAD-dependent protein deacetylase sirtuin-1 (Homo sapiens, UniProt Q96EB6); assay: Activation of recombinant human SIRT1 assessed as increase in deacetylation of Fluor de Lys-SIRT1-specific substrate after 2 hrs by HTS assay
T1 sequence (Q96EB6 whole entry): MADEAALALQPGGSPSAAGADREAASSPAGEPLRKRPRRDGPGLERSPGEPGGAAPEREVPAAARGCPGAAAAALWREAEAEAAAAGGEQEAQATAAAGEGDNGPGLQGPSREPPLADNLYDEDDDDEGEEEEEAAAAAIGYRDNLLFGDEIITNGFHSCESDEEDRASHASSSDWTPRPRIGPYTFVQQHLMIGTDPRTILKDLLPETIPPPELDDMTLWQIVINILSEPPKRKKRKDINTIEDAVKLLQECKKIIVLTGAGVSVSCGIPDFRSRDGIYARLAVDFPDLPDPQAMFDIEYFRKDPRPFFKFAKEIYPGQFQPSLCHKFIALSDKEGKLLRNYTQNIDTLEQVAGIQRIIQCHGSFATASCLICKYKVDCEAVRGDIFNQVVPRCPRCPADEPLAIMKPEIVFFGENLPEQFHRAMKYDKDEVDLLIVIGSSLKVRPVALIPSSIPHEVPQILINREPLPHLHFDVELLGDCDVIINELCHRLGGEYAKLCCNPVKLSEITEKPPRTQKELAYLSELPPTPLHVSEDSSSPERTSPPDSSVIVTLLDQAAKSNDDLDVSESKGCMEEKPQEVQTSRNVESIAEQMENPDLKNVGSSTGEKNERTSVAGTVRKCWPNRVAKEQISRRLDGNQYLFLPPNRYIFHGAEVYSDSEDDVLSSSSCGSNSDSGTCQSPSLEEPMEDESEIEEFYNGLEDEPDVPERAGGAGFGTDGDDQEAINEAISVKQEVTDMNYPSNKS

[3] = target: T1, NAD-dependent protein deacetylase sirtuin-1; assay: Inhibition of human SIRT1 using biotinylated peptide with an acetylated FLAG sequence as substrate measured after 3 hr in presence of NAD+ by TR-FRET assay
[4] = target: T2, NAD-dependent protein deacetylase sirtuin-2 (Homo sapiens, UniProt Q8IXJ6); assay: Inhibition of human SIRT2 using biotin labeled histone H4 peptide with an acetylated lysine 4 as substrate measured after 1 hr by luminescence analysis
T2 sequence (Q8IXJ6 whole entry): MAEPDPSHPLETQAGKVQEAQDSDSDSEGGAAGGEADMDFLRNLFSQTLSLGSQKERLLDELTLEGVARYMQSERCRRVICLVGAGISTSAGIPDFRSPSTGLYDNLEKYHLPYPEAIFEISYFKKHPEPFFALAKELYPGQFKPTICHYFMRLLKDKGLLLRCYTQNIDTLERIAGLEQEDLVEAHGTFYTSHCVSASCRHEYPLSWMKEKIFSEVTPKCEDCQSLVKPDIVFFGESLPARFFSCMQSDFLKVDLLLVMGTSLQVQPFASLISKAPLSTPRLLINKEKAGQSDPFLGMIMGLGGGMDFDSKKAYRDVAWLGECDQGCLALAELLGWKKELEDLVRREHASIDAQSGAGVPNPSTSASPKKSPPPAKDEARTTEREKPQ

[5] = target: T2, NAD-dependent protein deacetylase sirtuin-2; assay: Inhibition of human N-terminal 6His-tagged SIRT2 assessed as inhibition of deacetylase activity using ZMAL as substrate measured after 4 hrs by Fluor de Lys assay
[6] = target: T1, NAD-dependent protein deacetylase sirtuin-1; assay: Inhibition of recombinant human SIRT1 assessed as inhibition of deacetylase activity using ZMAL as substrate measured after 4 hrs by Fluor de Lys assay
[7] = target: T1, NAD-dependent protein deacetylase sirtuin-1; assay: Inhibition of recombinant SIRT1 (unknown origin) assessed as deacetylation activity using acetylated p53 as substrate measured after 2 hrs by Fluor de Lys assay
[8] = Drug absorption in human at 50 uCi, po up to 12 hrs using 14C-labeled compound by scintillation counting method; format: ADME, organism-based; settings: in vivo
[9] = Oral bioavailability in human at 50 uCi up to 12 hrs using 14C-labeled compound by scintillation counting method; format: ADME, organism-based; settings: in vivo
[10] = Oral bioavailability in rat at 50 or 150 mg/kg/day administered through gavage for 14 consecutive days by HPLC analysis; format: ADME, organism-based; settings: in vivo
[11] = Cytotoxicity in human MDA-MB-231 cells assessed as growth inhibition measured after 48 hrs by MTT assay; format: functional; settings: MDA-MB-231, 48 h
[12] = Cytotoxicity in human Caco2 cells assessed as growth inhibition measured after 48 hrs by MTT assay; format: functional; settings: Caco-2, 48 h
[13] = Cytotoxicity in human U937 cells assessed as growth inhibition measured after 48 hrs by MTT assay; format: functional; settings: U-937, 48 h
[14] = Cytotoxicity in human LNCAP cells assessed as growth inhibition measured after 48 hrs by MTT assay; format: functional
[15] = Cytotoxicity in HEK293 cells assessed as growth inhibition measured after 48 hrs by MTT assay; format: toxicity, cell-based; settings: human
[16] = target: T1, NAD-dependent protein deacetylase sirtuin-1; assay: Inhibition of human SIRT1 assessed as deacetylation activity preincubated with protein followed by addition of AMC-tagged Arg-His-Lys-Lys(Ac) (379 to 382 residues) as substrate measured after 45 mins in presence of NAD+ by fluorescence assay
[17] = target: T3, NAD-dependent protein deacetylase sirtuin-1 (Homo sapiens) (UniProt Q96EB6); assay: Activation of recombinant human SIRT1 using TPE-GK(Ac)YDD as substrate at 50 uM by fluorescence assay relative to control
T3 sequence (whole entry): T1 sequence (Q96EB6 whole entry)

[18] = Cytotoxicity against human lung cancer cells; format: functional; settings: Cancer cell lines
[19] = Cytotoxicity against human breast cancer cells; format: functional; settings: Cancer cell lines
[20] = Cytotoxicity against human leukemia cells; format: functional; settings: Leukemia cell
[21] = Cytotoxicity against human colon cancer cells; format: functional; settings: Cancer cell lines
[22] = Cytotoxicity against human kidney cancer cells; format: functional; settings: Cancer cell lines
[23] = Cytotoxicity against human prostate cancer cells; format: functional; settings: Cancer cell lines
[24] = target: T2, NAD-dependent protein deacetylase sirtuin-2; assay: Competitive inhibition of human SIRT2 assessed as deacetylation activity using fluorescent peptide substrate in presence of NAD+ by Lineweaver-Burk plot analysis
[25] = target: T2, NAD-dependent protein deacetylase sirtuin-2; assay: Noncompetitive inhibition of human SIRT2 assessed as deacetylation activity using fluorescent substrate in presence of NAD+ by Lineweaver-Burk plot analysis
[26] = target: T2, NAD-dependent protein deacetylase sirtuin-2; assay: Inhibition of recombinant human SIRT2 assessed as deacetylation activity using fluorescent substrate in presence of NAD+ by fluorescence analysis
[27] = target: T1, NAD-dependent protein deacetylase sirtuin-1; assay: Inhibition of recombinant human SIRT1 assessed as deacetylation activity using fluorescent substrate in presence of NAD+ by fluorescence analysis
[28] = target: T2, NAD-dependent protein deacetylase sirtuin-2; assay: Inhibition of full-length human N-terminal His6-tagged SIRT2 expressed in Escherichia coli BL21 (DE3) assessed as inhibition of deacetylase activity using ZMAL as substrate measured after 4 hrs by Fluor de Lys assay
[29] = target: T1, NAD-dependent protein deacetylase sirtuin-1; assay: Inhibition of recombinant human SIRT1 (193 to 747 residues) expressed in Escherichia coli BL21 (DE3) using AMC-labeled p53-derived acetylated lysine as substrate in presence of NAD+ by HTS assay
[30] = target: T1, NAD-dependent protein deacetylase sirtuin-1; assay: Inhibition of SIRT1 (unknown origin) using acetylated lysine as substrate by Fluor de Lys assay

COc1cc(/C=C/c2ccc(O)cc2)cc(OC)c1 [PTEROSTILBENE]
bioavailability [1]: 80%

Nc1c(S(=O)(=O)c2ccccc2)c2nc3ccccc3nc2n1-c1ccc(F)cc1
EC50 [2]: < 1 µM

CCCCc1nc2c(=O)n(C)c(=O)nc-2n(C)n1
IC50 [3]: 0.11 µM | IC50 [4]: > 100 µM

O=C1CC(=S)NC(=O)/C1=C/c1cc2ccccc2[nH]1
IC50 [5]: < 20.3 µM | IC50 [6]: 5.9 µM

CCc1ccccc1-n1c(N)c(C(=O)NCC2CCCO2)c2nc3ccccc3nc21 (centres undefined)
EC50 [2]: < 1 µM

Cc1ccc2[nH]c3c(c2c1)CCCC3C(=O)O (centres undefined)
IC50 [7]: 3.1 µM

Oc1ccc(/C=C/c2cc(O)cc(O)c2)cc1 [RESVERATROL]
Fabs [8]: 70% | F [9]: 0.5% | bioavailability [10]: 20%

Oc1ccccc1-c1nc2ccc(Cl)cn2c1NCc1ccc2c(c1)OCO2
GI50 [11]: < 1 µM | GI50 [12]: < 1 µM | GI50 [13]: < 1 µM | GI50 [14]: < 1 µM | GI50 at 48 h [15]: < 1 µM | IC50 [16]: 32 µM

CC(C)=CCC[C@](C)(O[C@@H]1O[C@H](CO)[C@@H](O)[C@H](O)[C@H]1O)[C@H]1CC[C@]2(C)[C@@H]1[C@H](O)C[C@@H]1[C@@]3(C)CC[C@H](O)C(C)(C)[C@@H]3[C@@H](O)C[C@]12C
Activity [17]: 28%

COc1ccc2c3c(c4cc(OC)c(OC)cc4c2c1)CN1CCCC[C@@H]1C3
GI50 [18]: 0.0002 to 0.1 µg/mL (≈ 0.00053 to 0.265 µM) | GI50 [19]: 0.0002 to 0.1 µg/mL (≈ 0.00053 to 0.265 µM) | GI50 [20]: 0.0002 to 0.1 µg/mL (≈ 0.00053 to 0.265 µM) | GI50 [21]: 0.0002 to 0.1 µg/mL (≈ 0.00053 to 0.265 µM) | GI50 [22]: 0.0002 to 0.1 µg/mL (≈ 0.00053 to 0.265 µM) | GI50 [23]: 0.0002 to 0.1 µg/mL (≈ 0.00053 to 0.265 µM)

O=C(/C=C/c1ccc(O)c(O)c1)NC(Cc1c[nH]c2ccccc12)C(=O)O (centres undefined)
Ki [24]: 5.3 µM | Ki [25]: 9.8 µM | IC50 [26]: 8.7 µM | IC50 [27]: 34 µM

Cc1ccc(-c2nc3c(=O)n(C)c(=O)nc-3n(C)n2)cc1
IC50 [3]: 0.11 µM | IC50 [4]: > 100 µM

CC1=CCC(C(=O)/N=C2\CC=C(S(=O)(=O)O)c3cc(S(=O)(=O)O)cc(S(=O)(=O)O)c32)=C/C1=N/C(=O)C1=CC=C/C(=N\C(=O)/N=C2\C=CC=C(C(=O)/N=C3/CC(C(=O)/N=C4\CC=C(S(=O)(=O)O)c5cc(S(=O)(=O)O)cc(S(=O)(=O)O)c54)=CC=C3C)C2)C1
IC50 [28]: 1.15 µM

Fc1cccc(-n2cc(CSC(=S)N3CCN(C(=S)SCc4cn(-c5ccccc5F)nn4)CC3)nn2)c1
IC50 [29]: 1.08 µM

NC(=O)c1cccc(Nc2ccccc2)c1
IC50 [30]: > 100 µM

N#CC1=C(N)NC(SCC(=O)c2ccc(O)c(O)c2)=C(C#N)C1=C1C=CC(=O)C=C1
GI50 [11]: < 1 µM | GI50 [12]: < 1 µM | GI50 [13]: < 1 µM | GI50 [14]: < 1 µM | GI50 at 48 h [15]: < 1 µM | IC50 [16]: 16.4 µM
